# Read-outs that look alike come from different tables or passages of the source.
# Assays:
# rats = details: rat, in vivo, ip
# D2 receptor = D2 receptor (Homo sapiens, UniProt P14416); assay: Filtration binding assay, dopamine (Spiperone-I125)
# mu opioid receptor = mu opioid receptor (Homo sapiens, UniProt P35372); assay: Filtration binding assay: mu opioid receptor
# kappa opioid receptor = kappa opioid receptor (Homo sapiens, UniProt P41145); assay: Filtration binding assay: kappa opioid receptor
# Chain of kappa opioid receptor (P41145 whole entry): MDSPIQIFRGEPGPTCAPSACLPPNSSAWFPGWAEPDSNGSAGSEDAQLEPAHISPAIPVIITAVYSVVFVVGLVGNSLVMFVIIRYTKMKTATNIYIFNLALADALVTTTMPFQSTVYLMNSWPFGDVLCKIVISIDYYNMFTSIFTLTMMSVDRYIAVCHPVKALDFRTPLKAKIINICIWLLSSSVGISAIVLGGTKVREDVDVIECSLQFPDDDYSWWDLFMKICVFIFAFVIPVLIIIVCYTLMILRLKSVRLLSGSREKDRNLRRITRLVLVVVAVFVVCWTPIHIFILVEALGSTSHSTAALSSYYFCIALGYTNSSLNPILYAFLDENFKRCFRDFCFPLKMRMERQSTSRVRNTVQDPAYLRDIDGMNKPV
# delta opioid receptor = delta opioid receptor (Homo sapiens, UniProt P41143); assay: Filtration binding assay: delta opioid receptor
# Chain of delta opioid receptor (P41143 whole entry): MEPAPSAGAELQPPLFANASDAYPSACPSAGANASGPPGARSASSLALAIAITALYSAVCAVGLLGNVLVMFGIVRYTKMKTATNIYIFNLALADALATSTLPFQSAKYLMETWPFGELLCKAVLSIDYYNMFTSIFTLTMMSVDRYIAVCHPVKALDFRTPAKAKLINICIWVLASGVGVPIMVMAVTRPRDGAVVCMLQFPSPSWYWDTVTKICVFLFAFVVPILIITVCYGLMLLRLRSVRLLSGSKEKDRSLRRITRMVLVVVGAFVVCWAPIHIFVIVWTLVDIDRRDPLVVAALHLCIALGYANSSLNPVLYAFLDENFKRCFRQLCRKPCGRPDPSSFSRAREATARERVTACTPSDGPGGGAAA
# Long-Evans Hooded rats [1] = details: rat, in vivo; for Total Entries (EPM), % Change / Total Entries (EPM), Mean / reduction of total number of entries into various zones of the maze: male, Long-Evans Hooded; for Total Entries (EPM), % Change / Total Entries (EPM), Mean / reduction of total number of entries into various zones of the maze / % Open Arm Entries (EPM), % Change / % Open Arm Entries (EPM), Mean / % Open Arm Time (EPM), % Change / % Open Arm Time (EPM), Mean / percent open arm entries, increase as compared to vehicle: po
# Long-Evans Hooded rats [2] = details: male, rat, in vivo, po
# [3] = D2 receptor, Spiperone-I125, read-out: IC50
# Chain of mu opioid receptor (P35372 whole entry): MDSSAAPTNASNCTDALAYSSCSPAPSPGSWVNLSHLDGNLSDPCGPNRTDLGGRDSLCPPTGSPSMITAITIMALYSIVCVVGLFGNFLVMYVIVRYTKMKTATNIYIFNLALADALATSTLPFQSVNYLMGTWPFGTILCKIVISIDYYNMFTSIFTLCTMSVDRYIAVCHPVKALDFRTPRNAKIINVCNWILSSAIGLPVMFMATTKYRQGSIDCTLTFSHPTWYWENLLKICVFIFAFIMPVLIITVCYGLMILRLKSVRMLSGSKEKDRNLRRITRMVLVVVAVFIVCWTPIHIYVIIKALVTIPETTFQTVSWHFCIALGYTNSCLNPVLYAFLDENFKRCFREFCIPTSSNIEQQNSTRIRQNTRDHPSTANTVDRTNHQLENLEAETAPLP
# Chain of D2 receptor (P14416 whole entry): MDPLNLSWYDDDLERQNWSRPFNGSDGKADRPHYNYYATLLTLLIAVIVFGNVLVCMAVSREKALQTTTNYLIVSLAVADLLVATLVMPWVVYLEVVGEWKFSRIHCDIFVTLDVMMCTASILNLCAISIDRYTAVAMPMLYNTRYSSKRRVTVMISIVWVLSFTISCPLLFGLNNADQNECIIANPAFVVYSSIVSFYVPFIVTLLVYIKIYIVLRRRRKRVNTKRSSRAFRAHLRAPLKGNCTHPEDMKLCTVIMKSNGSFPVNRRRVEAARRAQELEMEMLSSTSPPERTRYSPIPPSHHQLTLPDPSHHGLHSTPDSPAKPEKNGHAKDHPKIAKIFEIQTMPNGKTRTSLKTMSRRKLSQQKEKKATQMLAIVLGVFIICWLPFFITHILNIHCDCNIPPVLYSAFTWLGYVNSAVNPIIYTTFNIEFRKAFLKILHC
smiles,measurement,setting,value
"CCCCN(Cc1ccccc1)C[C@H](O)CN1CN(c2ccc(F)cc2)C2(CCN(CC3CCCCCCC3)CC2)C1=O [Compound #64, 3-[3-(Benzyl-butyl-amino)-2-(S)-hydroxy-propyl]-8-cyclooctylmethyl-1-(4-fluoro-phenyl)-1,3,8-triaza-spiro[4.5]decan-4-one]",% Increase Mean No. of Shocks,rats; 0.3 mg/kg,−10%
same,% Increase Mean No. of Shocks,rats; 1 mg/kg,25%
same,% Increase Mean No. of Shocks,rats; 3 mg/kg,96%
same,% Increase Mean No. of Shocks,rats; 10 mg/kg,150%
same,% Increase Mean No. of Shocks,rats; 30 mg/kg,−26%
"O=C1N(C[C@@H](O)CNc2ccncc2)CN(c2ccc(F)cc2)C12CCN(C1Cc3cccc4cccc1c34)CC2 (stereo partly shown) [Compound #327, 8-Acenaphthen-1-yl-1-(4-fluoro-phenyl)-3-[2-hydroxy-3-(pyridin-4-ylamino)-propyl]-1,3,8-triaza-spiro[4.5]decan-4-one]",IC50,D2 receptor,387 nM
"NC[C@H](O)CN1CN(c2ccc(F)cc2)C2(CCN([C@@H]3Cc4cccc5cccc3c45)CC2)C1=O [Compound #424, (R)-8-Acenaphthen-1-yl-3-(3-amino-2-hydroxy-(S)-propyl)-1-(4-fluoro-phenyl)-1,3,8-triaza-spiro[4.5]decan-4-one]",IC50,mu opioid receptor,280 nM
same,IC50,kappa opioid receptor,600 nM
same,IC50,delta opioid receptor,280 nM
same,IC50,D2 receptor; [3],278 nM
same,"Total Entries (EPM), % Change",Long-Evans Hooded rats [1]; 0.3 mg/kg,−6.9%
same,"Total Entries (EPM), Mean",Long-Evans Hooded rats [1]; 0.3 mg/kg,90.0
same,"Total Entries (EPM), % Change",Long-Evans Hooded rats [1]; 1 mg/kg,−5.3%
same,"Total Entries (EPM), Mean",Long-Evans Hooded rats [1]; 1 mg/kg,91.5
same,reduction of total number of entries into various zones of the maze,Long-Evans Hooded rats [1]; 1 mg/kg,18.6%
same,"Total Entries (EPM), % Change",Long-Evans Hooded rats [1]; 3 mg/kg,−0.4%
same,"Total Entries (EPM), Mean",Long-Evans Hooded rats [1]; 3 mg/kg,96.3
same,reduction of total number of entries into various zones of the maze,Long-Evans Hooded rats [1]; 3 mg/kg,60.3%
same,"Total Entries (EPM), % Change",Long-Evans Hooded rats [1]; 10 mg/kg,6.1%
same,"Total Entries (EPM), Mean",Long-Evans Hooded rats [1]; 10 mg/kg,102.6
same,reduction of total number of entries into various zones of the maze,Long-Evans Hooded rats [1]; 10 mg/kg,76.7%
same,percent open arm entries,Long-Evans Hooded rats [1],significant increases
same,percent open arm time,Long-Evans Hooded rats [1],significant increases
same,"percent open arm time, increase as compared to vehicle",Long-Evans Hooded rats [1],97.5%
same,"% Open Arm Entries (EPM), % Change",Long-Evans Hooded rats [1]; 0.3 mg/kg,33.8%
same,"% Open Arm Entries (EPM), Mean",Long-Evans Hooded rats [1]; 0.3 mg/kg,7.33%
same,"% Open Arm Time (EPM), % Change",Long-Evans Hooded rats [1]; 0.3 mg/kg,70.1%
same,"% Open Arm Time (EPM), Mean",Long-Evans Hooded rats [1]; 0.3 mg/kg,9.80%
same,"% Open Arm Entries (EPM), % Change",Long-Evans Hooded rats [1]; 1 mg/kg,36.7%
same,"% Open Arm Entries (EPM), Mean",Long-Evans Hooded rats [1]; 1 mg/kg,7.49%
same,"% Open Arm Time (EPM), % Change",Long-Evans Hooded rats [1]; 1 mg/kg,69.4%
same,"% Open Arm Time (EPM), Mean",Long-Evans Hooded rats [1]; 1 mg/kg,9.76%
same,"% Open Arm Entries (EPM), % Change",Long-Evans Hooded rats [1]; 3 mg/kg,44.5%
same,"% Open Arm Entries (EPM), Mean",Long-Evans Hooded rats [1]; 3 mg/kg,7.92%
same,"% Open Arm Time (EPM), % Change",Long-Evans Hooded rats [1]; 3 mg/kg,75.3%
same,"% Open Arm Time (EPM), Mean",Long-Evans Hooded rats [1]; 3 mg/kg,10.1%
same,"percent open arm entries, increase as compared to vehicle",Long-Evans Hooded rats [1]; 3 mg/kg,205%
same,"% Open Arm Entries (EPM), % Change",Long-Evans Hooded rats [1]; 10 mg/kg,36.7%
same,"% Open Arm Entries (EPM), Mean",Long-Evans Hooded rats [1]; 10 mg/kg,7.49%
same,"% Open Arm Time (EPM), % Change",Long-Evans Hooded rats [1]; 10 mg/kg,30.9%
same,"% Open Arm Time (EPM), Mean",Long-Evans Hooded rats [1]; 10 mg/kg,7.54%
same,"percent open arm entries, increase as compared to vehicle",Long-Evans Hooded rats [1]; 10 mg/kg,237%
same,"Horizontal Activity (SMA), % Change",Long-Evans Hooded rats [2]; 0.3 mg/kg,5.3%
same,"Horizontal Activity (SMA), Mean",Long-Evans Hooded rats [2]; 0.3 mg/kg,3033
same,"Vertical Movement (SMA), % Change",Long-Evans Hooded rats [2]; 0.3 mg/kg,11.2%
same,"Vertical Movement (SMA), Mean",Long-Evans Hooded rats [2]; 0.3 mg/kg,54.6
same,"Horizontal Activity (SMA), % Change",Long-Evans Hooded rats [2]; 1 mg/kg,−4.5%
same,"Horizontal Activity (SMA), Mean",Long-Evans Hooded rats [2]; 1 mg/kg,2752
same,"Vertical Movement (SMA), % Change",Long-Evans Hooded rats [2]; 1 mg/kg,2.4%
same,"Vertical Movement (SMA), Mean",Long-Evans Hooded rats [2]; 1 mg/kg,50.3
same,reduction in number of vertical movements (rearing behavior),Long-Evans Hooded rats [2]; 1 mg/kg,17.8%
same,"Horizontal Activity (SMA), % Change",Long-Evans Hooded rats [2]; 3 mg/kg,14.5%
same,"Horizontal Activity (SMA), Mean",Long-Evans Hooded rats [2]; 3 mg/kg,3300
same,"Vertical Movement (SMA), % Change",Long-Evans Hooded rats [2]; 3 mg/kg,15.7%
same,"Vertical Movement (SMA), Mean",Long-Evans Hooded rats [2]; 3 mg/kg,56.8
same,reduction in horizontal activity,Long-Evans Hooded rats [2]; 3 mg/kg,55%
same,reduction in number of vertical movements (rearing behavior),Long-Evans Hooded rats [2]; 3 mg/kg,73.4%
same,"Horizontal Activity (SMA), % Change",Long-Evans Hooded rats [2]; 10 mg/kg,−10.2%
same,"Horizontal Activity (SMA), Mean",Long-Evans Hooded rats [2]; 10 mg/kg,2588
same,"Vertical Movement (SMA), % Change",Long-Evans Hooded rats [2]; 10 mg/kg,−10.1%
same,"Vertical Movement (SMA), Mean",Long-Evans Hooded rats [2]; 10 mg/kg,44.2
same,reduction in horizontal activity,Long-Evans Hooded rats [2]; 10 mg/kg,83.7%
same,reduction in number of vertical movements (rearing behavior),Long-Evans Hooded rats [2]; 10 mg/kg,93.9%
"CCN(C)C[C@H](O)CN1CN(c2ccc(F)cc2)C2(CCN(Cc3cccc4cccc(C)c34)CC2)C1=O [Compound #440, 3-[3-(Ethyl-methyl-amino)-2-hydroxy-(S)-propyl]-1-(4-fluoro-phenyl)-8-(8-methyl-naphthalen-1-ylmethyl)-1,3,8-triaza-spiro[4.5]decan-4-one]",IC50,mu opioid receptor,> 10000 nM
same,IC50,kappa opioid receptor,> 10000 nM
same,IC50,D2 receptor; [3],1520 nM
CCN(C)C[C@H](O)CN1CN(c2ccc(F)cc2)C2(CCN([C@H]3Cc4cccc5cccc3c45)CC2)C1=O [compound 433],IC50,D2 receptor,3520 nM
CC1(C)[C@H]2CC=C(CN3CCC4(CC3)C(=O)N(C[C@@H](O)CN)CN4c3ccc(F)cc3)[C@@H]1C2 [compound 619],Ki,mu opioid receptor,140 nM
same,Ki,kappa opioid receptor,170 nM
same,Ki,delta opioid receptor,> 5000 nM
COCCCNC[C@H](O)CN1CN(c2ccc(F)cc2)C2(CCN(Cc3cccc4cccc(C)c34)CC2)C1=O [compound 650],Ki,mu opioid receptor,740 nM
same,Ki,kappa opioid receptor,460 nM
same,Ki,delta opioid receptor,> 5000 nM
CNCCCNC[C@H](O)CN1CN(c2ccccc2)C2(CCN([C@H]3CC[C@@H]4CCCc5cccc3c54)CC2)C1=O [compound 658],Ki,mu opioid receptor,170 nM
same,Ki,kappa opioid receptor,130 nM
same,Ki,delta opioid receptor,> 5000 nM
Cc1cccc2cccc(CN3CCC4(CC3)C(=O)N(C[C@H](O)CNCCCNC(=O)OC(C)(C)C)CN4c3ccc(F)cc3)c12 [compound 665],Ki,mu opioid receptor,2710 nM
same,Ki,kappa opioid receptor,290 nM
same,Ki,delta opioid receptor,> 5000 nM
Cc1cccc2cccc(CN3CCC4(CC3)C(=O)N(C[C@H](O)CNCCN(C)C(=O)OC(C)(C)C)CN4c3ccc(F)cc3)c12 [compound 667],Ki,mu opioid receptor,770 nM
same,Ki,kappa opioid receptor,450 nM
same,Ki,delta opioid receptor,4140 nM
O=C1N(C[C@H](O)CN2C(CO)C(O)C(O)C2CO)CN(c2ccc(F)cc2)C12CCN(C1CCCCCCC1)CC2 (stereo partly shown) [compound 688],Ki,mu opioid receptor,110 nM
same,Ki,kappa opioid receptor,160 nM
same,Ki,delta opioid receptor,> 5000 nM
Cc1cccc2cccc(CN3CCC4(CC3)C(=O)N(C[C@H](O)CN3CCCC3)CN4c3ccc(F)cc3)c12 [compound 705],Ki,mu opioid receptor,1500 nM
same,Ki,kappa opioid receptor,710 nM
same,Ki,delta opioid receptor,> 5000 nM
Cc1cccc2cccc(CN3CCC4(CC3)C(=O)N(C[C@H](O)CN3CC[C@@H](NC(=O)OC(C)(C)C)C3)CN4c3ccc(F)cc3)c12 [compound 710],Ki,mu opioid receptor,1090 nM
same,Ki,kappa opioid receptor,360 nM
same,Ki,delta opioid receptor,> 5000 nM
Cc1cccc2cccc(CN3CCC4(CC3)C(=O)N(CC(O)CN3CCC(N(C)C(=O)OC(C)(C)C)C3)CN4c3ccc(F)cc3)c12 (stereo not shown) [compound 721],Ki,mu opioid receptor,590 nM
same,Ki,kappa opioid receptor,170 nM
same,Ki,delta opioid receptor,> 5000 nM
CC1(C)[C@H]2CC=C(CN3CCC4(CC3)C(=O)N(C[C@@H]3CO3)CN4c3ccc(F)cc3)[C@@H]1C2 [compound 727],Ki,mu opioid receptor,120 nM
same,Ki,kappa opioid receptor,210 nM
same,Ki,delta opioid receptor,> 5000 nM

# Reference: patent publication US7582649B2, “Hydroxy alkyl substituted 1,3,8-triazaspiro[4.5]decan-4-one derivatives useful for the treatment of ORL-1 receptor mediated disorders” (Janssen Pharmaceutica, NV, priority 2002, dated 2009)
